{"source": "paper PMC3264828", "about": "(European Journal of Medicinal Chemistry, 2011)", "key": {"D1-like receptors [1]": {"biological_target": "D1-like receptors (Sus scrofa, UniProt P50130)", "sequence (P50130 whole entry)": "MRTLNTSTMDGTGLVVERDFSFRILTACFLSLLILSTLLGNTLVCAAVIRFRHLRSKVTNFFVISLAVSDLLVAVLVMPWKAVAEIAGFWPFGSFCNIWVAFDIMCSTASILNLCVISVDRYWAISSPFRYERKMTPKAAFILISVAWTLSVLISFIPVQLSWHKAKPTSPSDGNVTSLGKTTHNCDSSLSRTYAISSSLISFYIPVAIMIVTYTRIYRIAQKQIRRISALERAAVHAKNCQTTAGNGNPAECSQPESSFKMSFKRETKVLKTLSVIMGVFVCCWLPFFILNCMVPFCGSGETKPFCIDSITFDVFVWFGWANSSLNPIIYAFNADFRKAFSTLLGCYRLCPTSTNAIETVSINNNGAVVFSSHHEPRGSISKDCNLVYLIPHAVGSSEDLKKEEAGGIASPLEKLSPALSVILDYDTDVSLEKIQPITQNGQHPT", "assay": "Competition binding with [3H]SCH-23390 in porcine striatal homogenates", "conditions": "porcine striatal preparations; for decrease in D1 affinity compared to 2: relative to DOX (2)"}, "D1": {"system": "D1", "conditions": "2-substituted DHX analogues; cited from earlier work"}, "[2]": {"biological_target": "D1 dopamine receptor mutant L190A (Homo sapiens, UniProt P21728, L190A)", "sequence (P21728 whole entry L190A)": "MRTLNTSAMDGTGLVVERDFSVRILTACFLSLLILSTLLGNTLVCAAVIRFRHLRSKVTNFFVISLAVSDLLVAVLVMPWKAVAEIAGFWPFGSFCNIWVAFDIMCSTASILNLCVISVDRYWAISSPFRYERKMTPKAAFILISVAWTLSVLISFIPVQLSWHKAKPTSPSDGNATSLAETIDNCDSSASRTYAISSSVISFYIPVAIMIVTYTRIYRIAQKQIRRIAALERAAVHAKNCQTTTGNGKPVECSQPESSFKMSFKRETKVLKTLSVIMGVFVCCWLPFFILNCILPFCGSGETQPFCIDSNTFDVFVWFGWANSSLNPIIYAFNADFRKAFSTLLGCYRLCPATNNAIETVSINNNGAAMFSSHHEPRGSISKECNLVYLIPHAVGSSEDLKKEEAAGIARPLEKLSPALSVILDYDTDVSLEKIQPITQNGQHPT", "assay": "Mutagenesis experiments of the D1 dopamine receptor", "type": "binding", "conditions": "residue in extracellular loop 2; to be published elsewhere"}, "aged monkeys": {"system": "aged monkeys", "conditions": "cited from earlier work"}, "D1-like receptors [3]": {"system": "D1-like receptors", "conditions": "cited from earlier work"}, "prefrontal cortex": {"system": "prefrontal cortex", "conditions": "cited from earlier work"}, "D1 receptor": {"system": "D1 receptor", "conditions": "cited from earlier work"}, "[4]": {"system": "in vivo model of Parkinson's disease", "conditions": "African green monkeys; cited from earlier work"}}, "data": [{"compound": "Cl.Oc1cc2c(cc1O)[C@H]1c3cc(C(F)(F)F)ccc3CN[C@@H]1CO2", "note": "(racemic) [5d, (±)-Trans-2,3-dihydroxy-11-trifluoromethyl-6a,7,8,12b-tetrahydro-6H-chromeno[3,4-c]isoquinoline hydrochloride]", "values": [{"measurement": "decrease in D1 affinity compared to the methyl substituted compound 5a", "setting": "D1-like receptors [1]; relative to 5a", "result": "almost four-fold decrease"}, {"measurement": "decrease in D1 affinity compared to 2", "setting": "D1-like receptors [1]", "result": 22, "unit": "fold"}]}, {"compound": "CCc1ccc2c(c1)[C@@H]1c3cc(O)c(O)cc3CC[C@H]1NC2", "note": "[compound 4]", "values": [{"measurement": "D1 affinity in comparison to DHX", "setting": "D1", "result": "affinity lower than the unsubstituted compound"}]}, {"compound": "Cc1ccc2c(c1)[C@@H]1c3cc(O)c(O)cc3CC[C@H]1NC2", "note": "[compound 3]", "values": [{"measurement": "affinity at mutant L190A of the D1 dopamine receptor", "setting": "[2]", "result": "but not for 3"}, {"measurement": "D1 affinity in comparison to DHX", "setting": "D1", "result": "did not significantly reduce the affinity"}]}, {"compound": "Oc1cc2c(cc1O)[C@H]1c3ccccc3CN[C@@H]1CC2", "note": "(relative stereo) [compound 1, trans-10,11-dihydroxy-5,6,6a,7,8,12b-hexahydrobenzo[a]phenanthridine]", "values": [{"measurement": "working memory", "setting": "aged monkeys", "result": "improve working memory in aged monkeys"}, {"measurement": "affinity for D1-like receptors over D2-like receptors", "setting": "D1-like receptors [3]", "result": "ten-fold higher affinity"}, {"measurement": "blood flow in the prefrontal cortex", "setting": "prefrontal cortex", "result": "increase blood flow in the prefrontal cortex"}, {"measurement": "dopamine D1 agonist character", "setting": "D1 receptor", "result": "potent dopamine D1 full agonist"}, {"measurement": "therapeutic potential in an in vivo model of Parkinson's disease", "setting": "[4]", "result": "significant therapeutic potential"}]}, {"compound": "Oc1cc2c(cc1O)C1c3ccccc3CNC1CO2", "note": "(single isomer, unassigned; (+)) [(+)-2]", "values": [{"measurement": "efficacy for activation of the D1 receptor", "setting": "D1 receptor; compared with dopamine", "result": "higher efficacy than dopamine"}]}, {"compound": "Cc1ccc2c(c1)[C@@H]1c3cc(O)c(O)cc3OC[C@H]1NC2.Cl", "note": "(racemic) [5a, (±)-Trans-11-methyl-2,3-dihydroxy-6a,7,8,12b-tetrahydro-6H-chromeno[3,4-c]isoquinoline hydrobromide]", "values": [{"measurement": "decrease in D1 affinity compared to 2", "setting": "D1-like receptors [1]", "result": "nearly six-fold decrease"}, {"measurement": "affinity at mutant L190A of the D1 dopamine receptor", "setting": "[2]", "result": "significantly increased affinity"}]}]}
